Regarding `*/C=C/CCCCCCC(Cl)CCCCCC*` (repeat unit), the glass transition temperature is -57.00 °C.

`*C/C=C/COC(=O)C(Cc1ccccc1)NC(=O)CCCCCCCCC(=O)NC(Cc1ccccc1)C(=O)O*` (repeat unit) displayed a glass transition temperature of 46.00 °C.

Consider `*CC#CCOC(=O)CCCCCCC(=O)O*` (repeat unit), for which the glass transition temperature was -38.00 °C.

As for `*CC(O)COC(=O)CCCCC(=O)OCC(O)COc1ccc(O*)cc1` (repeat unit), the glass transition temperature was 19.00 °C.

With `*CC1CCC(CNC(=O)CCCCCCCCC(=O)N*)CC1` (repeat unit), the glass transition temperature turned out to be 89.00 °C.

As to `*CCC(c1ccccc1)C(*)c1ccccc1` (repeat unit), the glass transition temperature worked out at 104.30 °C.

Consider `*CCC1C(=O)N(CCC)C(=O)C1*` (repeat unit), for which the glass transition temperature stood at 90.40 °C.

With `*CCC1C(=O)N(CCCCCC)C(=O)C1*` (repeat unit), the glass transition temperature came out at 41.50 °C.

`*CCC1C(=O)N(CCCCCCCCCCCCCCCCCC)C(=O)C1*` (repeat unit) showed a glass transition temperature of 67.10 °C.

Turning to `*CCC1C(=O)N(CCCCNC(=O)C(F)(F)C(F)(F)C(F)(F)C(F)(F)C(F)(F)C(F)(F)C(F)(F)F)C(=O)C1*` (repeat unit), the glass transition temperature was determined as 100.00 °C.

Turning to `*CCC1CC(*)C2C3CC(CC)C(C3)C12` (repeat unit), the glass transition temperature came out at 138.00 °C.

The compound `*CCC1CC(*)C2C3CC(c4ccc(COC(C)CC)cc4)C(C3)C12` (repeat unit) had a glass transition temperature of 139.00 °C.

As to `*CCC1CC(OC(=O)CCCCCCCCCCOc2ccc(-c3ccc(C#N)cc3)cc2)CC1*` (repeat unit), the glass transition temperature turned out to be 24.00 °C.

The compound `*CCCC(Cl)C(*)Cl` (repeat unit) displayed a glass transition temperature of 42.00 °C.

`*CCCC1(CCCNC(=O)CCCCCCCCC(=O)N*)c2ccccc2-c2ccccc21` (repeat unit) had a glass transition temperature of 85.00 °C.

As for `*CCCCCC(*)CCCCCCCCCC` (repeat unit), the glass transition temperature is -65.00 °C.

As for `*CCCCCC(Cl)C(*)Cl` (repeat unit), the glass transition temperature was -17.00 °C.

As to `*CCCCCC(c1ccc(O)cc1)C(*)c1ccc(O)cc1C` (repeat unit), the glass transition temperature came out at 16.00 °C.

In the case of `*CCCCCCCC(*)C` (repeat unit), the glass transition temperature was -58.00 °C.

Consider `*CCCCCCCC(=O)OCCCCC1COC(*)O1` (repeat unit), for which the glass transition temperature is -44.00 °C.

Turning to `*CCCCCCCC(=O)OCCOC(=O)CCCCCCCC1OCC2(COC(*)OC2)CO1` (repeat unit), the glass transition temperature was 0.00 °C.

`*CCCCCCCCCCOC(=O)NNC(=O)CCCCCCCCC(=O)NNC(=O)O*` (repeat unit) came in with a glass transition temperature of 34.00 °C.

The compound `*CCCCCCCNC(=O)CCCCC(=O)N*` (repeat unit) had a glass transition temperature of 55.00 °C.

Consider `*CCCCCCN(CC(F)(F)C(F)(F)C(F)(F)C(F)(F)C(F)(F)C(F)(F)C(F)(F)F)C(=O)CCCCC(=O)N(*)CC(F)(F)C(F)(F)C(F)(F)C(F)(F)C(F)(F)C(F)(F)C(F)(F)F` (repeat unit), for which the glass transition temperature turned out to be 119.40 °C.

`*CCCCCCNC(=O)CCCCC(=O)NCC(=O)N*` (repeat unit): the glass transition temperature amounted to 53.40 °C.

`*CCCCCCNC(=O)CCCCCC(=O)N*` (repeat unit): the glass transition temperature is 54.00 °C.

`*CCCCCCNC(=O)CCCCCCC(=O)N*` (repeat unit): the glass transition temperature stood at 57.00 °C.

In turn, `*CCCCCCc1nc2cc(NC(=O)CCCCCCC(=O)Nc3ccc4oc(*)nc4c3)ccc2o1` (repeat unit) showed a glass transition temperature of 77.00 °C.

In turn, `*CCCCNC(=O)CCCCC(=O)N*` (repeat unit) showed a glass transition temperature of 58.00 °C.

With `*CCCNC(=O)CCCCCCCCC(=O)NCCCOCCOCCO*` (repeat unit), the glass transition temperature was found to be 40.00 °C.

Consider `*CCCOC(=O)CCCCCCC(=O)O*` (repeat unit), for which the glass transition temperature was -52.50 °C.

Take `*CCCP(=O)(CCCNC(=O)CCCCC(=O)N*)c1ccccc1` (repeat unit): the glass transition temperature was found to be 55.00 °C.

In the case of `*CCOCCOC(=O)CCCC(=O)O*` (repeat unit), the glass transition temperature is -55.00 °C.

Take `*CCOCCOC(=O)CCCCCC(=O)O*` (repeat unit): the glass transition temperature is -41.50 °C.

In the case of `*CCOCCOCCOC(=O)CCCCC(=O)O*` (repeat unit), the glass transition temperature was -49.00 °C.

As for `*CNC(=O)CCCCCCCCC(=O)NCC1COC(*)CO1` (repeat unit), the glass transition temperature amounted to 73.00 °C.

Regarding `*Cc1cccc(CNC(=O)CCC2(CCC(=O)N*)c3ccccc3-c3ccccc32)c1` (repeat unit), the glass transition temperature is 150.00 °C.

Regarding `*NC1CCC(CC2CCC(NC(=O)CCCCC(*)=O)CC2)CC1` (repeat unit), the glass transition temperature amounted to 185.00 °C.

Consider `*NNC(=O)c1ccc(C(*)=O)cc1OCC` (repeat unit), for which the glass transition temperature was 240.00 °C.

On to `*NNC(=O)c1ccc(C(*)=O)cc1OCCCCCCCC` (repeat unit), for which the glass transition temperature was 203.50 °C.

Turning to `*NNC(=O)c1ccc(C(*)=O)cc1OCCCCCCCCCC` (repeat unit), the glass transition temperature came out at 193.00 °C.

Consider `*Nc1ccc(-c2ccc(NC(=O)c3cc(NC(=O)c4ccc(NC(=O)C(C)N5C(=O)c6ccccc6C5=O)cc4)cc(C(*)=O)c3)cc2)cc1` (repeat unit), for which the glass transition temperature amounted to 202.00 °C.

Compound `*Nc1ccc(C(c2ccc(NC(=O)c3cc(NC(=O)CCCCCN4C(=O)c5ccccc5C4=O)cc(C(*)=O)c3)cc2)(C(F)(F)F)C(F)(F)F)cc1` (repeat unit) gave a glass transition temperature of 225.00 °C.

Compound `*Nc1ccc(C(c2ccc(NC(=O)c3cc(NC(=O)CCCN4C(=O)c5ccccc5C4=O)cc(C(*)=O)c3)cc2)(C(F)(F)F)C(F)(F)F)cc1` (repeat unit) displayed a glass transition temperature of 240.00 °C.

`*Nc1ccc(Cc2ccc(NC(=O)CCCCCCCCC(*)=O)cc2)cc1` (repeat unit) came in with a glass transition temperature of 160.00 °C.

In turn, `*Nc1ccc(NC(=O)CCCC(*)=O)cc1` (repeat unit) showed a glass transition temperature of 135.00 °C.

In the case of `*Nc1ccc(NC(=O)CCCCC(*)=O)cc1` (repeat unit), the glass transition temperature stood at 133.00 °C.

`*Nc1ccc(NC(=O)CCCCCCC(*)=O)cc1` (repeat unit): the glass transition temperature came to 138.00 °C.

`*Nc1ccc(NC(=O)CCCCCCCC(*)=O)cc1` (repeat unit) registered a glass transition temperature of 130.00 °C.

The compound `*OC(=O)C(Cc1ccccc1)NC(=O)CCCCCCC(=O)NC(Cc1ccccc1)C(=O)OC1COC2C(*)COC12` (repeat unit) returned a glass transition temperature of 91.00 °C.

Compound `*OC(=O)C(Cc1ccccc1)NC(=O)CCCCCCCCC(=O)NC(Cc1ccccc1)C(=O)OC1COC2C(*)COC12` (repeat unit) gave a glass transition temperature of 74.00 °C.

Consider `*OC(=O)CNC(=O)CNC(=O)CCCCCCCCC(=O)NCC(=O)NCC(=O)OC1COC2C(*)COC12` (repeat unit), for which the glass transition temperature is 47.00 °C.

Take `*OC(C)CCCC(C)C(*)=O` (repeat unit): the glass transition temperature was -33.00 °C.

Consider `*OCCCCOC1COC2C(OC(=O)CCCCC(=O)OC3COC4C(*)COC34)COC12` (repeat unit), for which the glass transition temperature is 114.00 °C.

For `*O[Si](C)(C)CCC/N=C1C=C(O)/C(=N\CCC[Si](*)(C)C)C=C\1O` (repeat unit), the glass transition temperature is 70.34 °C.

`*O[Si](C)(C)CCC/N=C1\c2ccccc2/C(=N\CCC[Si](*)(C)C)c2c(O)ccc(O)c21` (repeat unit) displayed a glass transition temperature of 7.50 °C.

`*O[Si](C)(C)O[Si](C)(C)OC(C)CCCCC(*)C` (repeat unit): the glass transition temperature was -87.00 °C.

In turn, `*Oc1c(-c2ccccc2)cc(Cc2cc(-c3ccccc3)c(OC(=O)CCCCCC(*)=O)c(-c3ccccc3)c2)cc1-c1ccccc1` (repeat unit) displayed a glass transition temperature of 111.00 °C.

In turn, `*Oc1ccc(-c2ccc(NC(=O)c3cc(C(=O)Nc4ccc(-c5ccc(Oc6ccc(C(c7ccc(*)cc7)(C(F)(F)F)C(F)(F)F)cc6)c(C(F)(F)F)c5)cc4)cc(C(C)(C)C)c3)cc2)cc1C(F)(F)F` (repeat unit) registered a glass transition temperature of 251.50 °C.

Turning to `*Oc1ccc(C2(c3ccc(OC(=O)CCCC(*)=O)cc3)c3ccccc3-c3ccccc32)cc1` (repeat unit), the glass transition temperature turned out to be 207.00 °C.

As to `*Oc1ccc(C2(c3ccc(OC(=O)CCCCCCCC(*)=O)cc3)c3ccccc3-c3ccccc32)cc1` (repeat unit), the glass transition temperature was found to be 150.00 °C.

`*Oc1ccc(CNC(=O)CCCCC(=O)NCc2ccc(OC3COC4C(*)COC34)cc2)cc1` (repeat unit) had a glass transition temperature of 116.00 °C.

As for `*Oc1ccc(Cc2ccc(OC(=O)CCCCC(*)=O)cc2)cc1` (repeat unit), the glass transition temperature was 60.50 °C.

Compound `*Oc1ccc(Oc2ccc(C(=O)c3ccc(NC(=O)CCCCCCCCC(=O)Nc4ccc(C(=O)c5ccc(*)cc5)cc4)cc3)cc2)cc1` (repeat unit) returned a glass transition temperature of 130.00 °C.

Turning to `*Oc1cccc(NC(=O)CCCCC(=O)Nc2ccc(*)cc2)c1` (repeat unit), the glass transition temperature was 160.00 °C.

`*Oc1cccc(NC(=O)CCCCCC(=O)Nc2ccc(*)cc2)c1` (repeat unit): the glass transition temperature is 130.00 °C.

For the compound `*Oc1cccc(Oc2ccc(C(=O)c3ccc(NC(=O)CCCCCCCCC(=O)Nc4ccc(C(=O)c5ccc(*)cc5)cc4)cc3)cc2)c1` (repeat unit), the glass transition temperature was found to be 143.00 °C.

For the compound `*c1ccc(NC(=O)CCCCCCCC(=O)Nc2ccc(S(*)(=O)=O)cc2)cc1` (repeat unit), the glass transition temperature stood at 178.00 °C.

`*c1ccc(OCCCCCCCCCCCOC(=O)CCCCC(=O)OCCCCCCCCCCCOc2ccc(-c3nnc(*)s3)cc2)cc1` (repeat unit) displayed a glass transition temperature of 69.00 °C.

Compound `*c1ccc2c(c1)C(=O)N(c1cc(C(=O)Nc3ccc(C(c4ccc(NC(=O)c5ccc(C)c(N6C(=O)c7ccc(C(*)(C(F)(F)F)C(F)(F)F)cc7C6=O)c5)cc4)(C(F)(F)F)C(F)(F)F)cc3)ccc1C)C2=O` (repeat unit) returned a glass transition temperature of 293.50 °C.

Source of the values: the PolyMetriX glass transition set.
